Each structure is given as a SMILES string.

Results on 3 compounds are retold here after patent US12152083B2 (priority 2014, dated 2024).

One data set relates to Jurkat cells. Description: Cell cycle arrest assay. To be noted: 50 nM, 24 h, propidium iodide. The format is cell-based. How it is done: Jurkat cells (ATCC), cultured in RMPI-1640 media supplemented with 10% FBS, were obtained in logarithmic growth. 1 million cells/ml were seeded into a 12-well tissue-culture treated plate in a 950 μL volume. Cells were treated with Compound 5 in 50 μL of growth media such that the final concentration of Compound 5 was 50 nM, control cells were given 50 μL of growth media alone. Cells were incubated for 24 h at 37° C., 5% CO2 in a humidified incubator. Following incubation, cells were thoroughly resuspended and transferred to 5 mL FACS tubes, and stored on ice. Two washes were performed by spinning cells down in a swinging-bucket centrifuge at 450×g for 4 min, resuspending in 1 mL ice-cold PBS. Cells were fixed through the addition of 3 mL ice-cold 100% ethanol in a dropwise fashion under vortex, and immediately stored at 4° C. for 1 h. During the 1 h incubation, the following staining solution was prepared in ice-cold PBS: 10 μg/ml propidium iodide, 10 U/ml RNAse 1f, and 0.05% Triton X-100. Following the 1 h fixation incubation, ethanol was removed by spinning cells as described above, and washing twice in 1 mL ice-cold PBS. Cells were resuspended in 500 μL of the above-mentioned staining solution, and incubated at room temperature for 1 h. […] Histograms were generated using FCS Express, plotting # of events against fluorescence in FL-3.

Data set [1] concerns Human T-cell leukemia cell line Jurkat. Description: Cellular cytotoxicity of compounds, Example 3.1 (CellTiter-Glo). To be noted: three nights. In kind it is cell-based. As for the experimental part: (§1) Compounds were tested on one or more of Human T-cell leukemia cell line Jurkat (ATCC: TIB-152); Human breast cancer cell lines HCC1954 (ATCC: CRL-2338) and JIMT-1 (DSMZ: ACC 589); Human Pancreatic cell line BxPC-3 (ATCC: CRL.1687), Human ovarian adenocarcinoma cell line SK-OV-3 (ATCC: HTB-77) and Human gastric carcinoma cell line NCI-N87 (ATCC: CRL. 5822); to assess their cytotoxicity.
(§2) Briefly, cells were obtained from commercial sources and cultured as described in the product sheet provided. Cells were removed from their culture vessels and the resulting cell suspension was counted using a ViCell (Beckman Coulter), then seeded at 25,000 cells/mL (2,500 cells/well) in Costar 3904 black walled, flat bottomed 96-well plates (cells were seeded in the inner 60 wells of 96-well TC plates, and outer edge wells filled with water). Adherent cell lines were incubated for one night at 37° C./5% CO2 atmosphere to allow the cells to attach to the microtiter plate surface, while suspension (Jurkat) cells were plated immediately before use. Cytotoxins were dissolved and serially diluted in dimethyl sulfoxide and then the solutions were added to complete growth medium at five-times the desired maximum final concentration. The cytotoxins were then titrated in growth medium, normally 1:3, over eight steps. A control with no test article present (growth medium alone) was included on each microtiter plate in sextuplicate. The prepared toxin titrations were added (25 μL/well) in triplicate to each cell line assayed. […] After the incubation, cell viability was measured using CellTiter-Glo® by adding 30 μL of prepared CellTiter-Glo® reagent to each assay well. The mixtures were incubated for at least twenty minutes in the dark prior to measuring emitted luminescence using a microplate luminometer (500 ms integration time). The collected relative luminescence units (RLU) were converted to % cytotoxicity using the growth medium alone control mentioned above (% Cytotoxicity=1−[well RLU/average medium alone control RLU]×[…]).

Data set [2] has as its system Human Pancreatic cell line BxPC-3. The description is as above. In kind it is cell-based. To be noted: five nights. As for the experimental part:
as §1, §2

Data set [3] concerns Human gastric carcinoma cell line NCI-N87. Described as above. The format is cell-based. The conditions noted are these: five nights. As for the experimental part:
as §1, §2

The test system of data set [4] is Jurkat, HCC1954, NCI-N87, BxPC-3, SK-OV-3, and JIMT-1 Cell Lines. Description: Cellular cytotoxicity, Example 3.1, control cytotoxin on all cell lines. In kind it is cell-based, Human. The conditions noted are these: Example 3.1 cell lines. As for the experimental part: as §1
Briefly, cells were obtained from commercial sources and cultured as described in the product sheet provided. Cells were removed from their culture vessels and the resulting cell suspension was counted using a ViCell (Beckman Coulter), then seeded at 25,000 cells/mL (2,500 cells/well) in Costar 3904 black walled, flat bottomed 96-well plates (cells were seeded in the inner 60 wells of 96-well TC plates, and outer edge wells filled with water). […] After the incubation, cell viability was measured using CellTiter-Glo® by adding 30 μL of prepared CellTiter-Glo® reagent to each assay well. The mixtures were incubated for at least twenty minutes in the dark prior to measuring emitted luminescence using a microplate luminometer (500 ms integration time). The collected relative luminescence units (RLU) were converted to % cytotoxicity using the growth medium alone control mentioned above (% Cytotoxicity=1−[well RLU/average medium alone control RLU]×[…]).

A further data set deals with Jurkat cell line. Description: Cytotoxicity of compounds, Example 3 (CellTiter-Glo, 3 days). In kind it is cell-based, Human. To be noted: titrated 1:3 starting with 30 nM. As for the experimental part:
Compounds were tested on Jurkat and HCC1954 cell lines to assess their cytotoxicity. Compounds were titrated 1:3 starting at various concentrations (30 nM to 1000 nM). Control cytotoxin HTI-286 (see, e.g., U.S. Pat. No. 7,579,323) was also titrated 1:3 across starting with a 30 nM concentration. Plates were incubated for 3 days. Cell viability was quantified using 30 μL/well of 1× CellTiter-Glo reagent.
Each cell line was grown in its respective growth medium until seeding day. Cells were removed from their culture vessels and the resulting cell suspension was counted using the ViCell. Cells were then diluted in their growth medium to 25000/mL such that 100 μL/well=2500 cells/well. Each cell line was seeded in the inner 60 wells of 96-well black walled TC plates, outer wells filled with water. HCC1954 were seeded a day prior to assay set up. Cytotoxins were diluted as described below a 5× dose-response of each compound was prepared using RPMI+10% FBS in a deep-well 96-well plate. This “master” dilution plate was used for each cell line. 25 μL of the 5× dose responses was spiked into each cell line in triplicate. The plates were returned to the incubator and were incubated for 3 nights. After the 3 nights, cell viability was quantified using 30 μL/well of 1× CellTiter-glo reagent. After at least 10 minutes of incubation, the luminescence was measured using the SpectraMax (500 ms integration).

Turning to `CC[C@H](C)[C@@H]([C@@H](CC(=O)N1CCC[C@H]1[C@H](OC)[C@@H](C)C(=O)NS(=O)(=O)c1ccc(N)cc1)OC)N(C)C(=O)[C@@H](NC(=O)[C@H](C(C)C)N(C)C)C(C)C` [Compound 5, (S)—N-((3R,4S,5S)-1-((S)-2-((1R,2R)-3-(4-Aminophenylsulfonamido)-1-methoxy-2-methyl-3-oxopropyl)pyrrolidin-1-yl)-3-methoxy-5-methyl-1-oxoheptan-4-yl)-2-((S)-2-(dimethylamino)-3-methylbutanamido)-N,3-dimethylbutanamide], the “DNA content histograms, cell cycle phase” value with Jurkat cells is on record as “pronounced shift towards G2/M phase of the cell cycle”.

With `CC[C@H](C)[C@@H]([C@@H](CC(=O)N1CCC[C@H]1[C@H](OC)[C@@H](C)C(=O)NS(=O)(=O)c1ccc(NC(=O)C(F)(F)F)cc1)OC)N(C)C(=O)[C@@H](NC(=O)[C@@H](NC)C(C)(C)c1ccccc1)C(C)C` [Compound 18], the concentration giving a half-maximal response (EC50) worked out at 1.5 nM in data set [1], 2.3 nM in data set [2] and 0.9 nM in data set [3].

`CN[C@H](C(=O)N[C@H](C(=O)N(C)[C@H](/C=C(\C)C(=O)O)C(C)C)C(C)(C)C)C(C)(C)c1ccccc1` [HTI-286]: the “killing of all cell lines by control cytotoxin” value in data set [4] is on record as “successfully killed all cell lines at an expected concentration”. For the same compound, the “killing of Jurkats by control cytotoxin” value in the data set on Jurkat cell line was “successfully killed Jurkats at an expected concentration”.

As a reminder, the EC50 is the concentration that produces a half-maximal response.
